Reference: US20250145687A1, “MODIFIED LIGAND-GATED ION CHANNELS AND METHODS OF USE” (Howard Hughes Medical Institute, priority 2022, published 2025)
Read-outs that look alike come from different tables or passages of the source.

Columns and labels:
Type in all cases: cell-based
[1] = target: T1, α7^L131G,Q139L,Y217F-5HT3 V154I, R155Y, W156N, S172V (Homo sapiens, UniProt P36544, L131G/M226I/Q139L/R155Y/S172V/T225I/V154I/W156N/Y217F); test: EC50 dose response, PSAM4-5HT3 with additional mutations; details: read-out: EC50s (SEM) for additional mutations of α7^L131G, Q139L, Y217F -5HT3
T1 construct: expressed in transfected cells; host or cells: HEK 293

[2] = target: T2, α7-5HT3 L131G, Q139L, W171F (Homo sapiens, UniProt P36544, L131G/M226I/Q139L/T225I/W171F); test: EC50 dose response, α7-5HT3 mutant; details: read-out: EC50s (SEM) for additional mutations of α7^L131G, Q139L, Y217F -5HT3
T2 construct: expressed in transfected cells; host or cells: HEK 293

[3] = target: T3, α7-5HT3 L131G, Q139L, Y217N (Homo sapiens, UniProt P36544, L131G/M226I/Q139L/T225I/Y217N); test: EC50 dose response, α7-5HT3 mutant; details: read-out: EC50s (SEM) for additional mutations of α7^L131G, Q139L, Y217F -5HT3
T3 construct: 5HT3 ion pore domain (fusion partner); expressed in transfected cells

[4] = target: T4, α7^L131G,Q139L,Y217F-5HT3 S172A (Homo sapiens, UniProt P36544, L131G/M226I/Q139L/S172A/T225I/Y217F); test: EC50 dose response, PSAM4-5HT3 with additional mutations; details: additional mutation S172A; read-out: EC50s (SEM) for additional mutations of α7^L131G, Q139L, Y217F -5HT3
T4 construct: expressed in transfected cells; host or cells: HEK 293

[5] = target: T5, α7^L131G,Q139L,Y217F-5HT3 S172V (Homo sapiens, UniProt P36544, L131G/M226I/Q139L/S172V/T225I/Y217F); test: as above; details: additional mutation S172V; read-out: EC50s (SEM) for additional mutations of α7^L131G, Q139L, Y217F -5HT3
T5 construct: expressed in transfected cells; host or cells: HEK 293

[6] = target: T6, α7^L131G,Q139L,Y217F-5HT3 H163T (Homo sapiens, UniProt P36544, H163T/L131G/M226I/Q139L/T225I/Y217F); test: as above; details: additional mutation H163T; read-out: EC50s (SEM) for additional mutations of α7^L131G, Q139L, Y217F -5HT3
T6 construct: expressed in transfected cells; host or cells: HEK 293

[7] = target: T7, α7^L131G,Q139L,Y217F-5HT3 H163D (Homo sapiens, UniProt P36544, H163D/L131G/M226I/Q139L/T225I/Y217F); test: as above; details: additional mutation H163D; read-out: EC50s (SEM) for additional mutations of α7^L131G, Q139L, Y217F -5HT3
T7 construct: expressed in transfected cells; host or cells: HEK 293

[8] = target: T8, α7-5HT3 L131G, Q139L, Y217A (Homo sapiens, UniProt P36544, L131G/M226I/Q139L/T225I/Y217A); test: EC50 dose response, α7-5HT3 mutant; details: read-out: EC50s (SEM) for additional mutations of α7^L131G, Q139L, Y217F -5HT3
T8 construct: expressed in transfected cells; host or cells: HEK 293

[9] = target: T9, α7^L131G,Q139L,Y217F-5HT3 H163N (Homo sapiens, UniProt P36544, H163N/L131G/M226I/Q139L/T225I/Y217F); test: EC50 dose response, PSAM4-5HT3 with additional mutations; details: additional mutation H163N; read-out: EC50s (SEM) for additional mutations of α7^L131G, Q139L, Y217F -5HT3
T9 construct: expressed in transfected cells; host or cells: HEK 293

[10] = target: T10, α7-5HT3 L131G, Q139L, Y217H (Homo sapiens, UniProt P36544, L131G/M226I/Q139L/T225I/Y217H); test: EC50 dose response, α7-5HT3 mutant; details: read-out: EC50s (SEM) for additional mutations of α7^L131G, Q139L, Y217F -5HT3
T10 construct: expressed in transfected cells; host or cells: HEK 293

[11] = target: T11, α7^L131G,Q139L,Y217F-5HT3 W156N, H163T (Homo sapiens, UniProt P36544, H163T/L131G/M226I/Q139L/T225I/W156N/Y217F); test: EC50 dose response, PSAM4-5HT3 with additional mutations; details: read-out: EC50s (SEM) for additional mutations of α7^L131G, Q139L, Y217F -5HT3
T11 construct: expressed in transfected cells; host or cells: HEK 293

[12] = target: T12, α7^L131G,Q139L,Y217F-5HT3 S172I (Homo sapiens, UniProt P36544, L131G/M226I/Q139L/S172I/T225I/Y217F); test: as above; details: additional mutation S172I; read-out: EC50s (SEM) for additional mutations of α7^L131G, Q139L, Y217F -5HT3
T12 construct: expressed in transfected cells; host or cells: HEK 293

[13] = target: T13, α7^L131G,Q139L,Y217F-5HT3 H163A (Homo sapiens, UniProt P36544, H163A/L131G/M226I/Q139L/T225I/Y217F); test: as above; details: additional mutation H163A; read-out: EC50s (SEM) for additional mutations of α7^L131G, Q139L, Y217F -5HT3
T13 construct: expressed in transfected cells; host or cells: HEK 293

[14] = target: T14, α7^L131G,Q139L,Y217F-5HT3 H163R (Homo sapiens, UniProt P36544, H163R/L131G/M226I/Q139L/T225I/Y217F); test: as above; details: additional mutation H163R; read-out: EC50s (SEM) for additional mutations of α7^L131G, Q139L, Y217F -5HT3
T14 construct: expressed in transfected cells; host or cells: HEK 293

[15] = target: T15, α7^L131G,Q139L,Y217F-5HT3 H163S (Homo sapiens, UniProt P36544, H163S/L131G/M226I/Q139L/T225I/Y217F); test: as above; details: additional mutation H163S; read-out: EC50s (SEM) for additional mutations of α7^L131G, Q139L, Y217F -5HT3
T15 construct: expressed in transfected cells; host or cells: HEK 293

[16] = target: T16, α7^L131G,Q139L,Y217F-5HT3 W156N (Homo sapiens, UniProt P36544, L131G/M226I/Q139L/T225I/W156N/Y217F); test: cell-based; details: additional mutation W156N; read-out: EC50s (SEM) for additional mutations of α7^L131G, Q139L, Y217F -5HT3
T16 construct: expressed in transfected cells; host or cells: HEK 293

[17] = target: T17, α7-5HT3 L131G, Q139L, W171Y (Homo sapiens, UniProt P36544, L131G/M226I/Q139L/T225I/W171Y); test: EC50 dose response, α7-5HT3 mutant; details: read-out: EC50s (SEM) for additional mutations of α7^L131G, Q139L, Y217F -5HT3
T17 construct: expressed in transfected cells; host or cells: HEK 293

[18] = target: T18, α7^L131G,Q139L,Y217F-5HT3 H163T, S172A (Homo sapiens, UniProt P36544, H163T/L131G/M226I/Q139L/S172A/T225I/Y217F); test: EC50 dose response, PSAM4-5HT3 with additional mutations; details: read-out: EC50s (SEM) for additional mutations of α7^L131G, Q139L, Y217F -5HT3
T18 construct: expressed in transfected cells; host or cells: HEK 293

[19] = target: T19, α7^L131G,Q139L,Y217F-5HT3 H163T, S172V (Homo sapiens, UniProt P36544, H163T/L131G/M226I/Q139L/S172V/T225I/Y217F); test: as above; details: read-out: EC50s (SEM) for additional mutations of α7^L131G, Q139L, Y217F -5HT3
T19 construct: expressed in transfected cells; host or cells: HEK 293

[20] = target: T20, α7^L131G,Q139L,Y217F-5HT3 H163F (Homo sapiens, UniProt P36544, H163F/L131G/M226I/Q139L/T225I/Y217F); test: as above; details: additional mutation H163F; read-out: EC50s (SEM) for additional mutations of α7^L131G, Q139L, Y217F -5HT3
T20 construct: expressed in transfected cells; host or cells: HEK 293

[21] = target: T21, α7^L131G,Q139L,Y217F-5HT3 H163K (Homo sapiens, UniProt P36544, H163K/L131G/M226I/Q139L/T225I/Y217F); test: as above; details: additional mutation H163K; read-out: EC50s (SEM) for additional mutations of α7^L131G, Q139L, Y217F -5HT3
T21 construct: expressed in transfected cells; host or cells: HEK 293

[22] = target: T22, α7^L131G,Q139L,Y217F-5HT3 H163V (Homo sapiens, UniProt P36544, H163V/L131G/M226I/Q139L/T225I/Y217F); test: as above; details: additional mutation H163V; read-out: EC50s (SEM) for additional mutations of α7^L131G, Q139L, Y217F -5HT3
T22 construct: expressed in transfected cells; host or cells: HEK 293

[23] = target: T23, PSAM4-5HT3 (α7-5HT3^L131G,Q139L,Y217F) (Homo sapiens, UniProt P36544, L131G/M226I/Q139L/T225I/Y217F); test: EC50 dose response of LGIC ligands on PSAM4-5HT3; details: read-out: EC50s (SEM) for additional mutations of α7^L131G, Q139L, Y217F -5HT3
T23 construct: expressed in transfected cells; host or cells: HEK 293

[24] = target: T24, α7^L131G,Q139L,Y217F-5HT3 V154I, R155Y, W156N, S172A (Homo sapiens, UniProt P36544, L131G/M226I/Q139L/R155Y/S172A/T225I/V154I/W156N/Y217F); test: EC50 dose response, PSAM4-5HT3 with additional mutations; details: read-out: EC50s (SEM) for additional mutations of α7^L131G, Q139L, Y217F -5HT3
T24 construct: expressed in transfected cells; host or cells: HEK 293

[25] = target: T25, α7^L131G,Q139L,Y217F-5HT3 V154L, R155Y, W156Q (Homo sapiens, UniProt P36544, L131G/M226I/Q139L/R155Y/T225I/V154L/W156Q/Y217F); test: as above; details: read-out: EC50s (SEM) for additional mutations of α7^L131G, Q139L, Y217F -5HT3
T25 construct: expressed in transfected cells; host or cells: HEK 293

[26] = target: T26, α7-5HT3 L131G, Q139L, Y217V (Homo sapiens, UniProt P36544, L131G/M226I/Q139L/T225I/Y217V); test: EC50 dose response, α7-5HT3 mutant; details: read-out: EC50s (SEM) for additional mutations of α7^L131G, Q139L, Y217F -5HT3
T26 construct: 5HT3 ion pore domain (fusion partner); expressed in transfected cells; HEK 293 is named only for the electrophysiology

[27] = target: T27, α7^L131G,Q139L,Y217F-5HT3 V154I, R155Y, W156N (Homo sapiens, UniProt P36544, L131G/M226I/Q139L/R155Y/T225I/V154I/W156N/Y217F); test: EC50 dose response, PSAM4-5HT3 with additional mutations; details: read-out: EC50s (SEM) for additional mutations of α7^L131G, Q139L, Y217F -5HT3
T27 construct: expressed in transfected cells; host or cells: HEK 293

[28] = PSAM4-5HT3 (no additional mutation)
[29] = line L131G, Q139L, Y217F (same values as PSAM4-5HT3 line)

T23 sequence (P36544 with tags, fused parts or gaps L131G/Q139L/Y217F/T225I/M226I limits assumed): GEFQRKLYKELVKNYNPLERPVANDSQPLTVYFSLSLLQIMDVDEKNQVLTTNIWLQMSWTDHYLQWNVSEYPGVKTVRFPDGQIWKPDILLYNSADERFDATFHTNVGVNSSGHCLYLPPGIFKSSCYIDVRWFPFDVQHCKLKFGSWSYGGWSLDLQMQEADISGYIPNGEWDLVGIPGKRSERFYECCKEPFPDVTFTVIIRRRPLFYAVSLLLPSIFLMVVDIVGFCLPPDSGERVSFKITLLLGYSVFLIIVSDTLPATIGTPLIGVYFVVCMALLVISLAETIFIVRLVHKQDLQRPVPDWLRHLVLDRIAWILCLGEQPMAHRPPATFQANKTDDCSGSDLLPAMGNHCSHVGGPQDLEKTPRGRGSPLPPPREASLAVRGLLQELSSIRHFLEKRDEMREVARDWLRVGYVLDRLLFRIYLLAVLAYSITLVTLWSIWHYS
T26 sequence (P36544 with tags, fused parts or gaps L131G/Q139L/Y217V/T225I/M226I limits assumed): as the sequence (P36544 with tags, fused parts or gaps L131G/Q139L/Y217F/T225I/M226I limits assumed) above, with F195V counted along it
T25 sequence (P36544 with tags, fused parts or gaps L131G/Q139L/V154L/R155Y/W156Q/Y217F/T225I/M226I limits assumed): as the sequence (P36544 with tags, fused parts or gaps L131G/Q139L/Y217F/T225I/M226I limits assumed) above, with V132L, R133Y, W134Q counted along it
T21 sequence (P36544 with tags, fused parts or gaps L131G/Q139L/H163K/Y217F/T225I/M226I limits assumed): as the sequence (P36544 with tags, fused parts or gaps L131G/Q139L/Y217F/T225I/M226I limits assumed) above, with H141K counted along it
T12 sequence (P36544 with tags, fused parts or gaps L131G/Q139L/S172I/Y217F/T225I/M226I limits assumed): as the sequence (P36544 with tags, fused parts or gaps L131G/Q139L/Y217F/T225I/M226I limits assumed) above, with S150I counted along it
T19 sequence (P36544 with tags, fused parts or gaps L131G/Q139L/H163T/S172V/Y217F/T225I/M226I limits assumed): as the sequence (P36544 with tags, fused parts or gaps L131G/Q139L/Y217F/T225I/M226I limits assumed) above, with H141T, S150V counted along it
T10 sequence (P36544 with tags, fused parts or gaps L131G/Q139L/Y217H/T225I/M226I limits assumed): as the sequence (P36544 with tags, fused parts or gaps L131G/Q139L/Y217F/T225I/M226I limits assumed) above, with F195H counted along it
T24 sequence (P36544 with tags, fused parts or gaps L131G/Q139L/V154I/R155Y/W156N/S172A/Y217F/T225I/M226I limits assumed): as the sequence (P36544 with tags, fused parts or gaps L131G/Q139L/Y217F/T225I/M226I limits assumed) above, with V132I, R133Y, W134N, S150A counted along it
T8 sequence (P36544 with tags, fused parts or gaps L131G/Q139L/Y217A/T225I/M226I limits assumed): as the sequence (P36544 with tags, fused parts or gaps L131G/Q139L/Y217F/T225I/M226I limits assumed) above, with F195A counted along it
T7 sequence (P36544 with tags, fused parts or gaps L131G/Q139L/H163D/Y217F/T225I/M226I limits assumed): as the sequence (P36544 with tags, fused parts or gaps L131G/Q139L/Y217F/T225I/M226I limits assumed) above, with H141D counted along it
T4 sequence (P36544 with tags, fused parts or gaps L131G/Q139L/S172A/Y217F/T225I/M226I limits assumed): as the sequence (P36544 with tags, fused parts or gaps L131G/Q139L/Y217F/T225I/M226I limits assumed) above, with S150A counted along it

COc1cnc2cc3c(cc2n1)C1CNCC3C1 (stereo not shown) [uPSEM 793]
EC50 [1]: 7.7 nM | EC50 [2]: > 100 nM | EC50 [3]: > 100 nM | EC50 [4]: 4 nM | EC50 [5]: 2.7 nM | EC50 [6]: 1.4 nM | EC50 [7]: 0.3 nM | EC50 [8]: 1.2 nM | EC50 [9]: 2.1 nM | EC50 [10]: 0.8 nM | EC50 [11]: 2 nM | EC50 [12]: 10 nM | EC50 [13]: 0.5 nM | EC50 [14]: 1.5 nM | EC50 [15]: 0.4 nM | EC50 [16]: 0.7 nM | EC50 [17]: > 100 nM | EC50 [18]: 2.5 nM | EC50 [19]: 1.5 nM | EC50 [20]: 0.7 nM | EC50 [21]: 0.5 nM | EC50 [22]: 1.5 nM | EC50 [23, 28]: 1.7 nM | EC50 [23, 29]: 1.7 nM | EC50 [24]: 4.1 nM | EC50 [25]: 0.7 nM | EC50 [26]: 2.4 nM

CCCOc1cnc2cc3c(cc2n1)C1CNCC3C1 (stereo not shown) [uPSEM 817]
EC50 [27]: 13 nM | EC50 [1]: 13 nM | EC50 [2]: > 100 nM | EC50 [3]: > 100 nM | EC50 [4]: 7 nM | EC50 [5]: 6 nM | EC50 [6]: 12 nM | EC50 [7]: 2.5 nM | EC50 [8]: 9.2 nM | EC50 [9]: 9.1 nM | EC50 [10]: 16 nM | EC50 [11]: 13 nM | EC50 [12]: 18 nM | EC50 [13]: 53 nM | EC50 [14]: 5.5 nM | EC50 [15]: 8.1 nM | EC50 [16]: 15 nM | EC50 [17]: > 100 nM | EC50 [18]: 7.8 nM | EC50 [19]: 6.3 nM | EC50 [20]: 8.2 nM | EC50 [21]: 10 nM | EC50 [22]: 9 nM | EC50 [23, 28]: 4.1 nM | EC50 [23, 29]: 4.1 nM | EC50 [24]: 12 nM | EC50 [25]: 17 nM | EC50 [26]: 24 nM
